From the CheMixHub ionic liquid set

Assay: xn = mol fraction of the nth substance listed
Details: 100 kPa

CCCCCCCO + CCCC[n+]1ccn(C)c1.O=S(=O)([N-]S(=O)(=O)C(F)(F)F)C(F)(F)F
298 K
Details	viscosity [mPa·s]
x2 = 0	5.956
x2 = 0.7975	33.43
x2 = 0.9013	40.9

CCCO + CCCC[n+]1ccn(C)c1.O=S(=O)([N-]S(=O)(=O)C(F)(F)F)C(F)(F)F
Details	viscosity [mPa·s]
298 K, x2 = 0	1.929

ClCCCl + CCCC[n+]1ccn(C)c1.O=S(=O)([N-]S(=O)(=O)C(F)(F)F)C(F)(F)F
Details	electrical conductivity [S/m]
294.5 K, x2 = 0.02555	0.68

CCCCCCCO + CCCC[n+]1ccn(C)c1.O=[N+]([O-])[O-]
x2 = 0
Details	viscosity [mPa·s]
293.15 K	7.03
303.15 K	5.03
313.15 K	3.71
323.15 K	2.79

CCOS(=O)(=O)[O-].CC[NH+]=C(N(C)C)N(C)C + CCCO
x2 = 0
Details	viscosity [mPa·s]
293.15 K	670
323.15 K	91

C[C@H](N)C(=O)[O-].C[N+](C)(C)CCO + CCCO
Details	viscosity [mPa·s]
287.96 K, x1 = 0.0997	7.8
287.99 K, x1 = 0.2007	22.8
288.02 K, x1 = 0.3915	119
288.03 K, x1 = 0.6939	910
288.04 K, x1 = 0.6047	540
288.05 K, x1 = 0.7915	1505
288.06 K, x1 = 0.506	267
288.07 K, x1 = 0.9049	2669
288.08 K, x1 = 0.2998	53
288.1 K, x1 = 1	5100
289.23 K, x1 = 0.0997	7.7
289.24 K, x1 = 0.2007	22.2
289.26 K, x1 = 0.3915	114
289.28 K, x1 = 0.6939	850
289.29 K, x1 = 0.6047	510
289.3 K, x1 = 0.7915	1387
289.31 K, x1 = 0.506	251
289.31 K, x1 = 0.9049	2464
289.32 K, x1 = 0.2998	51
289.96 K, x1 = 1	3700
290.21 K, x1 = 1	4300
290.49 K, x1 = 0.0997	7.5
290.5 K, x1 = 0.2007	21.3
290.51 K, x1 = 0.3915	107
290.52 K, x1 = 0.6047	470
290.52 K, x1 = 0.6939	770
290.53 K, x1 = 0.506	231
290.53 K, x1 = 0.7915	1251
290.53 K, x1 = 0.9049	2210
290.54 K, x1 = 0.2998	49
291.71 K, x1 = 0.0997	7.2
291.72 K, x1 = 0.2007	20.4
291.72 K, x1 = 0.3915	99
291.73 K, x1 = 0.2998	46
291.73 K, x1 = 0.506	214
291.73 K, x1 = 0.6047	430
291.73 K, x1 = 0.6939	700
291.73 K, x1 = 0.7915	1121
291.73 K, x1 = 0.9049	1968
292.02 K, x1 = 1	3052
292.32 K, x1 = 1	3520
292.9 K, x1 = 0.0997	6.9
292.91 K, x1 = 0.2007	19.6
292.91 K, x1 = 0.2998	43
292.91 K, x1 = 0.3915	93
292.91 K, x1 = 0.6047	391
292.92 K, x1 = 0.506	199
292.92 K, x1 = 0.6939	640
292.92 K, x1 = 0.7915	1017
292.92 K, x1 = 0.9049	1771
294.08 K, x1 = 1	2544
294.09 K, x1 = 0.0997	6.7
294.09 K, x1 = 0.2007	18.8
294.09 K, x1 = 0.2998	41
294.09 K, x1 = 0.3915	86
294.09 K, x1 = 0.506	185
294.09 K, x1 = 0.6047	358
294.09 K, x1 = 0.9049	1589
294.1 K, x1 = 0.6939	580
294.1 K, x1 = 0.7915	920
294.41 K, x1 = 1	2896
295.27 K, x1 = 0.0997	6.5
295.27 K, x1 = 0.2007	18
295.27 K, x1 = 0.2998	38.9
295.27 K, x1 = 0.3915	81
295.27 K, x1 = 0.506	172
295.27 K, x1 = 0.6047	329
295.27 K, x1 = 0.6939	530
295.27 K, x1 = 0.7915	840
295.27 K, x1 = 0.9049	1438
296.14 K, x1 = 1	2140
296.45 K, x1 = 0.0997	6.3
296.45 K, x1 = 0.2007	17.3
296.45 K, x1 = 0.2998	36.9
296.45 K, x1 = 0.3915	76
296.45 K, x1 = 0.506	160
296.45 K, x1 = 0.6047	302
296.45 K, x1 = 0.6939	490
296.45 K, x1 = 0.7915	760
296.45 K, x1 = 0.9049	1298
296.48 K, x1 = 1	2402
297.63 K, x1 = 0.0997	6.1
297.63 K, x1 = 0.2007	16.6
297.63 K, x1 = 0.2998	35
297.63 K, x1 = 0.3915	71
297.63 K, x1 = 0.506	149
297.63 K, x1 = 0.6047	278
297.63 K, x1 = 0.6939	450
297.63 K, x1 = 0.7915	700
297.63 K, x1 = 0.9049	1174
298.2 K, x1 = 1	1806
298.54 K, x1 = 1	2000
298.8 K, x1 = 0.0997	6
298.8 K, x1 = 0.2007	16
298.8 K, x1 = 0.2998	33.4
298.8 K, x1 = 0.3915	67
298.8 K, x1 = 0.6047	257
298.81 K, x1 = 0.506	140
298.81 K, x1 = 0.6939	410
298.81 K, x1 = 0.7915	640
